{"source": "PubChem BioAssay (NCI)", "assay_in_all_cases": "NCI-60 cell line screen, 48 h", "key": {"[1]": {"system": "CAKI-1 renal"}, "[2]": {"system": "DU-145 prostate"}, "[3]": {"system": "HL-60(TB) leukemia"}, "[4]": {"system": "HS 578T breast"}, "[5]": {"system": "KM12 colon"}, "[6]": {"system": "MDA-MB-435"}, "[7]": {"system": "OVCAR-3 ovarian"}, "[8]": {"system": "RPMI-8226 leukemia"}, "[9]": {"system": "SK-OV-3 ovarian"}, "[10]": {"system": "TK-10 renal"}, "[11]": {"system": "786-0 renal"}, "[12]": {"system": "A498 renal"}, "[13]": {"system": "A549 NSCLC"}, "[14]": {"system": "ACHN renal"}, "[15]": {"system": "BT-549 breast"}, "[16]": {"system": "CCRF-CEM leukemia"}, "[17]": {"system": "COLO 205 colon"}, "[18]": {"system": "EKVX NSCLC"}, "[19]": {"system": "HCT-116 colon"}, "[20]": {"system": "HCT-15 colon"}, "[21]": {"system": "HOP-62 NSCLC"}, "[22]": {"system": "HOP-92 NSCLC"}, "[23]": {"system": "HT29 colon"}, "[24]": {"system": "IGROV1 ovarian"}, "[25]": {"system": "K-562 leukemia"}, "[26]": {"system": "LOX IMVI melanoma"}, "[27]": {"system": "M14 melanoma"}, "[28]": {"system": "MALME-3M melanoma"}, "[29]": {"system": "MCF7 breast"}, "[30]": {"system": "MDA-MB-231 breast"}, "[31]": {"system": "MOLT-4 leukemia"}, "[32]": {"system": "NCI-H226 lung"}, "[33]": {"system": "NCI-H23 lung"}, "[34]": {"system": "NCI-H460 lung"}, "[35]": {"system": "NCI-H522 lung"}, "[36]": {"system": "NCI/ADR-RES ovarian"}, "[37]": {"system": "OVCAR-4 ovarian"}, "[38]": {"system": "OVCAR-5 ovarian"}, "[39]": {"system": "OVCAR-8 ovarian"}, "[40]": {"system": "PC-3 prostate"}, "[41]": {"system": "RXF 393 renal"}, "[42]": {"system": "SF-268 CNS"}, "[43]": {"system": "SF-295 CNS"}, "[44]": {"system": "SF-539 CNS"}, "[45]": {"system": "SK-MEL-2 melanoma"}, "[46]": {"system": "SK-MEL-28 melanoma"}, "[47]": {"system": "SK-MEL-5 melanoma"}, "[48]": {"system": "SN12C renal"}, "[49]": {"system": "SNB-19 CNS"}, "[50]": {"system": "SNB-75 CNS"}, "[51]": {"system": "SR leukemia"}, "[52]": {"system": "SW-620 colon"}, "[53]": {"system": "T-47D breast"}, "[54]": {"system": "U251 CNS"}, "[55]": {"system": "UACC-257 melanoma"}, "[56]": {"system": "UACC-62 melanoma"}}, "note": "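A five-concentration, 48-hour dose response in 96-well plates underlies each endpoint, interpolated linearly between surrounding concentrations. At the GI50, growth is halved. The concentration for full growth arrest is given as TGI.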", "data": [{"compound": "N=C(N)c1ccc(-c2ccc(-c3cc(Cl)cc(Cl)c3)o2)o1", "values": [{"measurement": "GI50", "setting": "[1]", "value": 1.7, "unit": "µM"}, {"measurement": "TGI", "setting": "[1]", "value": 3.11, "unit": "µM"}, {"measurement": "GI50", "setting": "[2]", "value": 1.78, "unit": "µM"}, {"measurement": "TGI", "setting": "[2]", "value": 3.24, "unit": "µM"}, {"measurement": "GI50", "setting": "[3]", "value": 1.62, "unit": "µM"}, {"measurement": "TGI", "setting": "[3]", "value": 3.49, "unit": "µM"}, {"measurement": "GI50", "setting": "[4]", "value": 2.22, "unit": "µM"}, {"measurement": "TGI", "setting": "[4]", "value": 5.02, "unit": "µM"}, {"measurement": "GI50", "setting": "[5]", "value": 1.65, "unit": "µM"}, {"measurement": "TGI", "setting": "[5]", "value": 3.18, "unit": "µM"}, {"measurement": "GI50", "setting": "[6]", "value": 1.61, "unit": "µM"}, {"measurement": "TGI", "setting": "[6]", "value": 2.99, "unit": "µM"}, {"measurement": "GI50", "setting": "[7]", "value": 1.7, "unit": "µM"}, {"measurement": "TGI", "setting": "[7]", "value": 3.14, "unit": "µM"}, {"measurement": "GI50", "setting": "[8]", "value": 2.13, "unit": "µM"}, {"measurement": "TGI", "setting": "[8]", "value": 4.63, "unit": "µM"}, {"measurement": "GI50", "setting": "[9]", "value": 1.8, "unit": "µM"}, {"measurement": "TGI", "setting": "[9]", "value": 3.34, "unit": "µM"}, {"measurement": "GI50", "setting": "[10]", "value": 1.85, "unit": "µM"}, {"measurement": "TGI", "setting": "[10]", "value": 3.39, "unit": "µM"}]}, {"compound": "CN(C)CCCc1c2ccccc2nc2ccc(Cl)cc12", "values": [{"measurement": "TGI", "setting": "[11]", "value": 24.4, "unit": "µM"}, {"measurement": "TGI", "setting": "[12]", "value": 34.2, "unit": "µM"}, {"measurement": "TGI", "setting": "[13]", "value": 28.3, "unit": "µM"}, {"measurement": "TGI", "setting": "[14]", "value": 33.6, "unit": "µM"}, {"measurement": "TGI", "setting": "[15]", "value": 38.2, "unit": "µM"}, {"measurement": "TGI", "setting": "[1]", "value": 31.4, "unit": "µM"}, {"measurement": "TGI", "setting": "[16]", "value": 35.8, "unit": "µM"}, {"measurement": "TGI", "setting": "[17]", "value": 29.8, "unit": "µM"}, {"measurement": "TGI", "setting": "[2]", "value": 58.7, "unit": "µM"}, {"measurement": "TGI", "setting": "[18]", "value": 35.1, "unit": "µM"}, {"measurement": "TGI", "setting": "[19]", "value": 25.4, "unit": "µM"}, {"measurement": "TGI", "setting": "[20]", "value": 93.7, "unit": "µM"}, {"measurement": "TGI", "setting": "[3]", "value": 40.3, "unit": "µM"}, {"measurement": "TGI", "setting": "[21]", "value": 30, "unit": "µM"}, {"measurement": "TGI", "setting": "[22]", "value": 23.1, "unit": "µM"}, {"measurement": "TGI", "setting": "[4]", "value": 34.4, "unit": "µM"}, {"measurement": "TGI", "setting": "[23]", "value": 28.5, "unit": "µM"}, {"measurement": "TGI", "setting": "[24]", "value": 31, "unit": "µM"}, {"measurement": "TGI", "setting": "[25]", "value": 67.7, "unit": "µM"}, {"measurement": "TGI", "setting": "[5]", "value": 32.5, "unit": "µM"}, {"measurement": "TGI", "setting": "[26]", "value": 29.1, "unit": "µM"}, {"measurement": "TGI", "setting": "[27]", "value": 27.8, "unit": "µM"}, {"measurement": "TGI", "setting": "[28]", "value": 30.1, "unit": "µM"}, {"measurement": "TGI", "setting": "[29]", "value": 23.7, "unit": "µM"}, {"measurement": "TGI", "setting": "[30]", "value": 31.9, "unit": "µM"}, {"measurement": "TGI", "setting": "[6]", "value": 26.6, "unit": "µM"}, {"measurement": "TGI", "setting": "[31]", "value": 44.5, "unit": "µM"}, {"measurement": "TGI", "setting": "[32]", "value": 40.7, "unit": "µM"}, {"measurement": "TGI", "setting": "[33]", "value": 84.8, "unit": "µM"}, {"measurement": "TGI", "setting": "[34]", "value": 25.3, "unit": "µM"}, {"measurement": "TGI", "setting": "[35]", "value": 29.4, "unit": "µM"}, {"measurement": "TGI", "setting": "[36]", "value": 52, "unit": "µM"}, {"measurement": "TGI", "setting": "[7]", "value": 57.7, "unit": "µM"}, {"measurement": "TGI", "setting": "[37]", "value": 56.1, "unit": "µM"}, {"measurement": "TGI", "setting": "[38]", "value": 33.3, "unit": "µM"}, {"measurement": "TGI", "setting": "[39]", "value": 32.6, "unit": "µM"}, {"measurement": "TGI", "setting": "[40]", "value": 37, "unit": "µM"}, {"measurement": "TGI", "setting": "[8]", "value": 96.2, "unit": "µM"}, {"measurement": "TGI", "setting": "[41]", "value": 28.8, "unit": "µM"}, {"measurement": "TGI", "setting": "[42]", "value": 33.3, "unit": "µM"}, {"measurement": "TGI", "setting": "[43]", "value": 30.9, "unit": "µM"}, {"measurement": "TGI", "setting": "[44]", "value": 33.6, "unit": "µM"}, {"measurement": "TGI", "setting": "[45]", "value": 34.8, "unit": "µM"}, {"measurement": "TGI", "setting": "[46]", "value": 37.3, "unit": "µM"}, {"measurement": "TGI", "setting": "[47]", "value": 28.2, "unit": "µM"}, {"measurement": "TGI", "setting": "[9]", "value": 41.7, "unit": "µM"}, {"measurement": "TGI", "setting": "[48]", "value": 26.1, "unit": "µM"}, {"measurement": "TGI", "setting": "[49]", "value": 33.5, "unit": "µM"}, {"measurement": "TGI", "setting": "[50]", "value": 31.8, "unit": "µM"}, {"measurement": "TGI", "setting": "[51]", "value": 44.1, "unit": "µM"}, {"measurement": "TGI", "setting": "[52]", "value": 98.4, "unit": "µM"}, {"measurement": "TGI", "setting": "[53]", "value": "> 100", "unit": "µM"}, {"measurement": "TGI", "setting": "[10]", "value": 27.1, "unit": "µM"}, {"measurement": "TGI", "setting": "[54]", "value": 24.8, "unit": "µM"}, {"measurement": "TGI", "setting": "[55]", "value": 26.4, "unit": "µM"}, {"measurement": "TGI", "setting": "[56]", "value": 34.2, "unit": "µM"}]}]}
